From the supplement of paper PMC10331698
± gives the standard deviation of the averaged measurements.

Experiments:
Assay in all cases: level (log10 ratio to DMSO vehicle control); higher = higher biomarker level / cell amount than vehicle control
[1] = compound: C=C(C)C(=O)OCCC(F)(F)C(F)(F)C(F)(F)C(F)(F)C(F)(C(F)(F)F)C(F)(F)F [(Perfluoro-5-methylhexyl)ethyl 2-methylprop-2-enoate]; details: in DMSO
Procedure: (§1)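 BioMAP Diversity Plus panel of 12 human primary cell co-culture systems (3C, 4H, LPS, SAg, BT, BF4T, BE3C, CASM3C, HDF3CGF, KF3CT, MyoF, Mphg). Compounds were added 1 h before stimulation and left for 24 h (MyoF 48 h; BT 72 h for soluble read-outs or 6 d for IgG). Biomarkers were read by ELISA, cytotoxicity by SRB, PBMC viability and proliferation by Alamar Blue. Each well value was divided by the mean of 8 DMSO control wells on the same plate and log10 transformed; duplicate blinded samples were tested at 4 concentrations.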

Pentafluoropropionamide = compound: NC(=O)C(F)(F)C(F)(F)F [Pentafluoropropionamide]; details: in DMSO
Procedure: as §1

Perfluoroheptanoic acid = compound: O=C(O)C(F)(F)C(F)(F)C(F)(F)C(F)(F)C(F)(F)C(F)(F)F [Perfluoroheptanoic acid]; details: in DMSO
Procedure: as §1

[2] = compound: O=C(O)C(F)(F)C(F)(F)C(F)F [4H-Perfluorobutanoic acid]; details: in DMSO
Procedure: as §1

Perfluoropropanoic acid = compound: O=C(O)C(F)(F)C(F)(F)F [Perfluoropropanoic acid]; details: in DMSO
Procedure: as §1

[3] = compound: OCC(F)(F)OC(F)(F)C(F)(F)OC(F)(F)CO [1H,1H,8H,8H-Perfluoro-3,6-dioxaoctane-1,8-diol]; details: in DMSO
Procedure: as §1

[4] = compound: OCCC(F)(F)C(F)(F)C(F)(F)C(F)(F)C(F)(F)C(F)(F)F [6:2 Fluorotelomer alcohol]; details: in DMSO
Procedure: as §1

[5] = compound: OCCCC(F)(F)C(F)(F)C(F)(F)C(F)(F)C(F)(F)C(F)(F)C(F)(F)F [7:3 Fluorotelomer alcohol]; details: 6700 nM; in DMSO
Procedure: as §1

| Test System | level (log10) ([1]; 6700 nM) | level (log10) ([1]; 20000 nM) | level (log10) (Pentafluoropropionamide; 6700 nM) | level (log10) (Pentafluoropropionamide; 20000 nM) | level (log10) (Pentafluoropropionamide; 60000 nM) | level (log10) (Perfluoroheptanoic acid; 6700 nM) | level (log10) (Perfluoroheptanoic acid; 20000 nM) | level (log10) (Perfluoroheptanoic acid; 60000 nM) | level (log10) ([2]; 6700 nM) | level (log10) ([2]; 20000 nM) | level (log10) ([2]; 60000 nM) | level (log10) (Perfluoropropanoic acid; 6700 nM) | level (log10) (Perfluoropropanoic acid; 20000 nM) | level (log10) (Perfluoropropanoic acid; 60000 nM) | level (log10) ([3]; 6700 nM) | level (log10) ([3]; 20000 nM) | level (log10) ([3]; 60000 nM) | level (log10) ([4]; 6700 nM) | level (log10) ([4]; 20000 nM) | level (log10) [5] |
| --- | --- | --- | --- | --- | --- | --- | --- | --- | --- | --- | --- | --- | --- | --- | --- | --- | --- | --- | --- | --- |
| LPS:SRB | -0.001 ± 0.0028 | -0.0085 ± 0.0021 | 0 ± 0.014 | -0.006 ± 0.0014 | -0.0105 ± 0.00071 | -0.019 ± 0.0085 | 0.001 ± 0.0028 | -0.019 ± 0.0099 | -0.0045 ± 0.0035 | -0.0105 ± 0.0092 | 0.003 | -0.0125 ± 0.00071 | -0.0035 ± 0.013 | -0.0065 ± 0.0064 | -0.0075 ± 0.012 | -0.0125 ± 0.0092 | -0.0205 ± 0.005 | 0.0095 ± 0.0078 | 0.004 ± 0.0071 | -0.002 |
| LPS:sPGE2 | -0.038 ± 0.05 | -0.016 ± 0.064 | 0.032 ± 0.0085 | -0.008 ± 0.0071 | -0.018 ± 0.014 | 0.0295 ± 0.005 | -0.0185 ± 0.022 | -0.0285 ± 0.059 | 0.0025 ± 0.054 | -0.111 ± 0.054 | -0.052 ± 0.013 | -0.017 ± 0.05 | -0.018 ± 0.0071 | -0.011 ± 0.04 | -0.0235 ± 0.019 | -0.023 ± 0.045 | -0.0195 ± 0.00071 | -0.028 ± 0.05 | -0.0465 ± 0.039 | 0.101 ± 0.03 |
| LPS:sTNF-alpha | 0.0265 ± 0.04 | 0.0345 ± 0.063 | 0.05 ± 0.0014 | 0.0015 ± 0.023 | 0.0095 ± 0.04 | -0.0265 ± 0.054 | -0.049 ± 0.0071 | -0.0215 ± 0.046 | 0.0095 ± 0.043 | 0.0095 ± 0.023 | 0.004 ± 0.031 | -0.006 ± 0.013 | 0.0065 ± 0.00071 | 0.0175 ± 0.0021 | -0.0235 ± 0.025 | -0.0435 ± 0.032 | -0.0335 ± 0.022 | -0.0335 ± 0.17 | -0.016 ± 0.16 | -0.081 ± 0.05 |
| SAg:CCL2/MCP-1 | -0.014 ± 0.018 | 0.0065 ± 0.033 | -0.012 ± 0.0014 | -0.018 ± 0.0099 | -0.0095 ± 0.016 | -0.013 ± 0.0085 | 0.0215 ± 0.011 | 0.0215 ± 0.013 | -0.011 ± 0.038 | -0.0085 ± 0.04 | -0.0065 ± 0.081 | -0.0055 ± 0.036 | 0.012 ± 0.016 | 0.0145 ± 0.042 | 0.0085 ± 0.005 | -0.0105 ± 0.012 | 0.011 ± 0.037 | -0.0165 ± 0.0035 | -0.0115 ± 0.00071 | 0.003 ± 0.0014 |
| SAg:CD38 | -0.011 ± 0.016 | -0.0055 ± 0.015 | -0.026 ± 0.02 | -0.0125 ± 0.028 | 0.0005 ± 0.0064 | -0.02 ± 0.0042 | -0.001 ± 0.0057 | -0.0225 ± 0.03 | 0.008 ± 0.028 | 0.0195 ± 0.0021 | 0.017 ± 0.021 | 0.0015 ± 0.043 | 0.023 ± 0.0085 | 0.029 ± 0.055 | -0.006 ± 0.02 | -0.0105 ± 0.013 | -0.0015 ± 0.0021 | 0.0115 ± 0.026 | -0.008 ± 0.0071 | 0.0245 ± 0.07 |
| SAg:CD40 | 0 ± 0.0071 | -0.0275 ± 0.028 | -0.041 ± 0.0071 | -0.0195 ± 0.015 | -0.0445 ± 0.0021 | -0.015 ± 0.027 | -0.006 ± 0.0028 | -0.021 ± 0.018 | 0 ± 0.0028 | -0.056 ± 0.045 | -0.028 ± 0.044 | -0.045 ± 0.016 | -0.0335 ± 0.044 | -0.009 ± 0.031 | -0.003 ± 0.0057 | 0.0095 ± 0.013 | 0.004 ± 0.0042 | -0.003 ± 0.0085 | 0.0005 ± 0.0021 | -0.031 ± 0.0057 |
| SAg:CD62E/E-Selectin | 0.0215 ± 0.011 | 0.007 ± 0.014 | -0.0215 ± 0.005 | -0.0095 ± 0.026 | -0.0115 ± 0.018 | -0.025 ± 0.0085 | 0.011 | 0.008 ± 0.013 | -0.0205 ± 0.018 | -0.002 ± 0.0014 | 0.0175 ± 0.0078 | 0.004 ± 0.013 | -0.0205 ± 0.016 | 0.0425 ± 0.023 | -0.0135 ± 0.0064 | -0.0185 ± 0.0064 | 0.0125 ± 0.044 | -0.0015 ± 0.0092 | 0.002 ± 0.027 | -0.0005 ± 0.00071 |
| SAg:CD69 | -0.0095 ± 0.015 | -0.0335 ± 0.033 | -0.026 ± 0.013 | -0.0385 ± 0.018 | -0.026 ± 0.0071 | -0.006 ± 0.0014 | -0.0145 ± 0.0021 | -0.008 ± 0.017 | -0.0145 ± 0.015 | -0.0165 ± 0.015 | 0.005 ± 0.027 | -0.0175 ± 0.005 | -0.019 ± 0.0042 | -0.008 ± 0.023 | 0.0065 ± 0.0064 | 0.015 ± 0.016 | -0.0145 ± 0.013 | 0.012 ± 0.025 | -0.012 ± 0.016 | -0.026 ± 0.018 |
| SAg:CXCL8/IL-8 | 0.0115 ± 0.012 | 0.0405 ± 0.079 | -0.0245 ± 0.025 | -0.0255 ± 0.036 | 0.0075 ± 0.04 | 0.008 ± 0.011 | 0.0115 ± 0.0078 | 0.0715 ± 0.043 | -0.0325 ± 0.03 | -0.0065 ± 0.022 | 0.025 ± 0.098 | -0.022 ± 0.0057 | 0.0065 ± 0.019 | 0.0415 ± 0.0078 | 0.0115 ± 0.022 | -0.005 | 0.014 ± 0.044 | -0.0035 ± 0.011 | 0.0035 ± 0.0021 | -0.0085 ± 0.025 |
| SAg:CXCL9/MIG | 0.002 ± 0.0085 | 0.015 ± 0.0042 | -0.0145 ± 0.0021 | -0.017 ± 0.0014 | 0.009 ± 0.014 | -0.0125 ± 0.0078 | 0.0015 ± 0.0064 | 0.0105 ± 0.011 | -0.0115 ± 0.00071 | -0.0035 ± 0.0078 | 0.0095 ± 0.016 | -0.0015 ± 0.0078 | 0.012 ± 0.0057 | 0.0025 ± 0.022 | 0.0075 ± 0.0021 | 0 ± 0.0014 | 0.0065 ± 0.0092 | -0.0095 ± 0.0021 | -0.0055 ± 0.00071 | -0.0145 ± 0.005 |
| SAg:PBMC Cytotoxicity | -0.0255 ± 0.018 | 0.0155 ± 0.013 | 0.0005 ± 0.052 | 0.026 ± 0.0042 | 0.0245 ± 0.012 | 0.0255 ± 0.0021 | 0.0095 ± 0.019 | 0.0195 ± 0.026 | -0.0205 ± 0.015 | 0.002 ± 0.0042 | 0.017 ± 0.033 | -0.001 ± 0.013 | -0.0055 ± 0.0092 | 0.009 ± 0.044 | 0.0055 ± 0.005 | 0.028 ± 0.089 | -0.033 ± 0.0042 | 0.0025 ± 0.005 | 0.023 ± 0.028 | -0.0315 ± 0.018 |
| SAg:Proliferation | 0.011 ± 0.0085 | 0.009 ± 0.018 | 0.0045 ± 0.016 | 0.0135 ± 0.022 | 0.045 ± 0.0028 | 0.0045 ± 0.032 | 0.0275 ± 0.035 | 0.028 ± 0.034 | -0.0545 ± 0.026 | -0.0325 ± 0.025 | -0.0145 ± 0.03 | -0.0205 ± 0.043 | -0.0085 ± 0.019 | -0.0025 ± 0.07 | -0.025 ± 0.013 | -0.0195 ± 0.023 | -0.0055 ± 0.015 | -0.015 ± 0.027 | -0.024 ± 0.013 | -0.0205 ± 0.052 |
| SAg:SRB | -0.001 ± 0.0042 | -0.0105 ± 0.0078 | -0.0005 ± 0.016 | -0.0055 ± 0.0092 | -0.01 ± 0.014 | -0.0155 ± 0.013 | 0.001 ± 0.011 | -0.0385 ± 0.016 | -0.0055 ± 0.0078 | -0.0145 ± 0.0021 | 0 ± 0.0028 | -0.01 ± 0.0028 | -0.014 ± 0.0042 | -0.0035 ± 0.00071 | -0.0115 ± 0.012 | -0.0195 ± 0.0092 | -0.0195 ± 0.016 | -0.003 ± 0.027 | 0 ± 0.02 | 0.0045 ± 0.013 |
